The text below walks through data of patent publication US20260132164A1, “PNU ANTHRACYCLINE DERIVATIVES AND METHODS OF USE THEREOF” (Merck Sharp & Dohme LLC, priority 2022, published 2026).

SMILES strings stand for the structures.

The test system of one experiment is BxPC3. Briefly: CellTiter-Glo 2.0 Cytotoxicity Assay. As to conditions: CellTiter-Glo 2.0 luminescence; compound added day 1, read on day 4 or 5; 3000 cells/well. In kind it is cell-based. (In general: In ATP-based viability assays light output follows the ATP content of the culture.)
As a reminder, the EC50 is the concentration at which the effect is half-maximal. High values mean weaker potency, low ones greater potency. On to `COc1cccc2c1C(=O)c1c(O)c3c(c(O)c1C2=O)C[C@@](O)(C(=O)NCC1CC(=O)NC1=O)C[C@@H]3O[C@H]1C[C@H]2[C@H](O[C@@H]3[C@@H](OC)OCCN32)[C@H](C)O1` (stereo partly drawn) [Compound 87], for which the EC50 turned out to be 0.12 nM.
On the same count and under the same terms, the value for `COc1cccc2c1C(=O)c1c(O)c3c(c(O)c1C2=O)C[C@@](O)(C(=O)NCC1CC(=O)NC1=O)C[C@@H]3O[C@H]1C[C@H]2[C@H](O[C@@H]3[C@@H](OC)OCCN32)[C@H](C)O1` (stereo partly drawn) [Compound 88] was 0.27 nM.

Staying with this experiment, now noted: Homo sapiens, BXPC-3, CellTiter-Glo 2.0 luminescence; compound added day 1, read on day 4 or 5; 3000 cells/well.
Regarding `COc1cccc2c1C(=O)c1c(O)c3c(c(O)c1C2=O)C[C@@](O)(C(=O)NCc1cnc(N)o1)C[C@@H]3O[C@H]1C[C@H]2[C@H](O[C@@H]3[C@@H](OC)OCCN32)[C@H](C)O1` [Compound 70], a half-maximal effect (EC50) was put at 0.095 nM.
The same measure, in the same setting: under `COc1cccc2c1C(=O)c1c(O)c3c(c(O)c1C2=O)C[C@@](O)(C(=O)N[C@@H]1CCC[C@H]1N)C[C@@H]3O[C@H]1C[C@H]2[C@H](O[C@@H]3[C@@H](OC)OCCN32)[C@H](C)O1` [Compound 71] stands 8.4 nM; under `COc1cccc2c1C(=O)c1c(O)c3c(c(O)c1C2=O)C[C@@](O)(C(=O)NCc1ccc(N)nc1)C[C@@H]3O[C@H]1C[C@H]2[C@H](O[C@@H]3[C@@H](OC)OCCN32)[C@H](C)O1` [Compound 72], 0.08 nM; under `COc1cccc2c1C(=O)c1c(O)c3c(c(O)c1C2=O)C[C@@](O)(C(=O)NCCC(N)C(F)(F)F)C[C@@H]3O[C@H]1C[C@H]2[C@H](O[C@@H]3[C@@H](OC)OCCN32)[C@H](C)O1` (stereo partly drawn) [Compound 73], 0.2 nM.
Regarding `COc1cccc2c1C(=O)c1c(O)c3c(c(O)c1C2=O)C[C@@](O)(C(=O)NCCC(N)C(F)F)C[C@@H]3O[C@H]1C[C@H]2[C@H](O[C@@H]3[C@@H](OC)OCCN32)[C@H](C)O1` (stereo partly drawn) [Compound 74], the concentration for a half-maximal effect (EC50) was found to be 0.2 nM.
Turning to `COc1cccc2c1C(=O)c1c(O)c3c(c(O)c1C2=O)C[C@@](O)(C(=O)N1C[C@H]2CN[C@H]2C1)C[C@@H]3O[C@H]1C[C@H]2[C@H](O[C@@H]3[C@@H](OC)OCCN32)[C@H](C)O1` [Compound 75], the EC50 is 2.9 nM.
`COc1cccc2c1C(=O)c1c(O)c3c(c(O)c1C2=O)C[C@@](O)(C(=O)N1C[C@@H]2CN[C@@H]2C1)C[C@@H]3O[C@H]1C[C@H]2[C@H](O[C@@H]3[C@@H](OC)OCCN32)[C@H](C)O1` [Compound 76] displayed an EC50 of 15 nM.
`COc1cccc2c1C(=O)c1c(O)c3c(c(O)c1C2=O)C[C@@](O)(C(=O)Nc1ccc(N)cc1)C[C@@H]3O[C@H]1C[C@H]2[C@H](O[C@@H]3[C@@H](OC)OCCN32)[C@H](C)O1` [Compound 77] displayed an EC50 of 0.11 nM.
As to `COc1cccc2c1C(=O)c1c(O)c3c(c(O)c1C2=O)C[C@@](O)(C(=O)NCc1ccc(O)cc1)C[C@@H]3O[C@H]1C[C@H]2[C@H](O[C@@H]3[C@@H](OC)OCCN32)[C@H](C)O1` [Compound 78], the EC50 came out at 0.056 nM.
Same read-out and setting: under `COc1cccc2c1C(=O)c1c(O)c3c(c(O)c1C2=O)C[C@@](O)(C(=O)NCc1ccccc1N)C[C@@H]3O[C@H]1C[C@H]2[C@H](O[C@@H]3[C@@H](OC)OCCN32)[C@H](C)O1` [Compound 79] stands 0.15 nM; under `COc1cccc2c1C(=O)c1c(O)c3c(c(O)c1C2=O)C[C@@](O)(C(=O)N[C@H]1CCC[C@@H]1N)C[C@@H]3O[C@H]1C[C@H]2[C@H](O[C@@H]3[C@@H](OC)OCCN32)[C@H](C)O1` [Compound 80], 14.1 nM; under `COc1cccc2c1C(=O)c1c(O)c3c(c(O)c1C2=O)C[C@@](O)(C(=O)Nc1cc(N)n(C)n1)C[C@@H]3O[C@H]1C[C@H]2[C@H](O[C@@H]3[C@@H](OC)OCCN32)[C@H](C)O1` [Compound 81], 0.4 nM.
On the same count and under the same terms, under `COc1cccc2c1C(=O)c1c(O)c3c(c(O)c1C2=O)C[C@@](O)(C(=O)NCc1nc(N)cn1C)C[C@@H]3O[C@H]1C[C@H]2[C@H](O[C@@H]3[C@@H](OC)OCCN32)[C@H](C)O1` [Compound 82] stands 0.26 nM; under `COc1cccc2c1C(=O)c1c(O)c3c(c(O)c1C2=O)C[C@@](O)(C(=O)Nc1ccc(CN)cc1)C[C@@H]3O[C@H]1C[C@H]2[C@H](O[C@@H]3[C@@H](OC)OCCN32)[C@H](C)O1` [Compound 83], 11 nM; under `COc1cccc2c1C(=O)c1c(O)c3c(c(O)c1C2=O)C[C@@](O)(C(=O)NCC12CC(N)(C1)C2)C[C@@H]3O[C@H]1C[C@H]2[C@H](O[C@@H]3[C@@H](OC)OCCN32)[C@H](C)O1` [Compound 84], 0.61 nM.
On the same count and under the same terms, the value for `COc1cccc2c1C(=O)c1c(O)c3c(c(O)c1C2=O)C[C@@](O)(C(=O)NC[C@H]1CNC(=O)C1)C[C@@H]3O[C@H]1C[C@H]2[C@H](O[C@@H]3[C@@H](OC)OCCN32)[C@H](C)O1` [Compound 85] was 0.4 nM; that for `COc1cccc2c1C(=O)c1c(O)c3c(c(O)c1C2=O)C[C@@](O)(C(=O)NC[C@@H]1CNC(=O)C1)C[C@@H]3O[C@H]1C[C@H]2[C@H](O[C@@H]3[C@@H](OC)OCCN32)[C@H](C)O1` [Compound 86] was 0.39 nM.
`COc1cccc2c1C(=O)c1c(O)c3c(c(O)c1C2=O)C[C@@](O)(C(=O)NCCO)C[C@@H]3O[C@H]1C[C@H]2[C@H](O[C@@H]3[C@@H](OC)OCCN32)[C@H](C)O1` [Compound 89] registered an EC50 of 0.37 nM.
The same measure, in the same setting: the value for `COc1cccc2c1C(=O)c1c(O)c3c(c(O)c1C2=O)C[C@@](O)(C(=O)NC12CC(O)(C1)C2)C[C@@H]3O[C@H]1C[C@H]2[C@H](O[C@@H]3[C@@H](OC)OCCN32)[C@H](C)O1` [Compound 90] was 0.23 nM.
